Results reported in patent US12168012B2, “NLRP3 inflammasome inhibitors” (Novartis AG, priority 2018, dated 2024).
Structures can show the parent of a compound that is named as a salt.

Tests used:
[1] = system: NF-kB-dependent TNF-α secretion; test: TNF-α secretion assay (counterscreen); assay type: cell-based; conditions: Homo sapiens; THP-1 cells, Pam3CSK4-stimulated, 3 hours, HTRF
Description: Monocytic THP-1 cells were maintained according to providers' instructions in RPMI media as described above. Undifferentiated cells were plated at 50,000 cells per well in a 384-well flat-bottom cell culture plates (Greiner, #781986), and allowed to rest overnight. Experimental compounds were prepared and added as described above. TNF-α secretion was triggered by the addition of either 1 μg/mL LPS (Sigma, #L4391) or 100 ng/mL Pam3CSK4 (Invivogen, #tlrl-pms) depending on the experiment, and cells were incubated for 3 hours. 10 μL supernatant was removed, and TNF-α levels were monitored using an HTRF assay (CisBio, #62TNFPEC) according to manufacturers' instructions. Viability was monitored as described above.
IC50 values were calculated from the plot of percentage of inhibition versus the inhibitor concentration by a logistics fit according to: y=A2+(A1−A2)/(1+(x/IC50)^p) where y is the %-inhibition at the inhibitor concentration, x. A1 is the lowest inhibition value, i.e. 0%, and A2 the maximum inhibition value, i.e. 100%. The exponent, p, is the Hill coefficient. The curve fitting was conducted with an internally developed software suite. […]

NLRP3 inflammasome = test: IL-1β secretion assay; assay type: cell-based; conditions: PMA-differentiated THP-1 cells, 15 μM nigericin, HTRF
How it was run: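 PMA-differentiated THP-1 cells stimulated with nigericin to trigger NLRP3-dependent IL-1β secretion, measured by HTRF after 3 h. Viability/pyroptosis monitored with PrestoBlue. IC50 from logistic fit of % inhibition vs concentration with Hill coefficient.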

Row | Structure (SMILES) | IC50 [1] [nM] | IC50 (NLRP3 inflammasome; Homo sapiens, THP-1, 3 h) [nM] | IC50 (NLRP3 inflammasome; 3 hours) [nM]
1 | Cc1cc2c(cc3c(=O)n(CC(=O)N[C@@H]4CCCN(C)C4)nc(C(C)C)n32)s1 [Ex 40, (R)-2-(5-Isopropyl-2-methyl-8-oxothieno[2′,3′:4,5]pyrrolo[1,2-d][1,2,4]triazin-7(8H)-yl)-N-(1-methylpiperidin-3-yl)acetamide] | > 100000 | 56.3 | –
2 | Cc1cc2c(cc3c(=O)n(CC(=O)NC4CC4)nc(C(C)C)n32)s1 [Ex 41, N-Cyclopropyl-2-(5-isopropyl-2-methyl-8-oxothieno[2′,3′:4,5]pyrrolo[1,2-d][1,2,4]triazin-7(8H)-yl)acetamide] | > 100000 | 1170 | –
3 | CC(O)c1nn(CC(=O)Nc2cccnc2)c(=O)c2cc3sc(Cl)cc3n12 (centres unmarked) [Ex 42, 2-(2-Chloro-5-(1-hydroxyethyl)-8-oxothieno[2′,3′:4,5]pyrrolo[1,2-d][1,2,4]triazin-7(8H)-yl)-N-(pyridin-3-yl)acetamide] | > 100000 | 1100 | –
4 | CC(O)c1nn(CC(=O)N[C@@H]2CCCNC2)c(=O)c2cc3sc(Cl)cc3n12 (stereo partly drawn) [Ex 43, 2-(2-Chloro-5-(1-hydroxyethyl)-8-oxothieno[2′,3′:4,5]pyrrolo[1,2-d][1,2,4]triazin-7(8H)-yl)-N-((R)-piperidin-3-yl)acetamide hydrochloride] | > 100000 | 2050 | –
5 | CC(O)c1nn(CC(=O)N[C@@H]2CCCN(C)C2)c(=O)c2cc3sc(Cl)cc3n12 (stereo partly drawn) [Ex 44, 2-(2-Chloro-5-(1-hydroxyethyl)-8-oxothieno[2′,3′:4,5]pyrrolo[1,2-d][1,2,4]triazin-7(8H)-yl)-N-((R)-1-methylpiperidin-3-yl)acetamide] | > 100000 | 112 | –
6 | CC(O)c1nn(CC(=O)N[C@@H]2CCC[C@@](C)(O)C2)c(=O)c2cc3sc(Cl)cc3n12 (stereo partly drawn) [Ex 45, 2-(2-Chloro-5-(1-hydroxyethyl)-8-oxothieno[2′,3′:4,5]pyrrolo[1,2-d][1,2,4]triazin-7(8H)-yl)-N-((1R,3R)-3-hydroxy-3-methylcyclohexyl)acetamide] | > 100000 | 244 | –
7 | CC(C)c1nn(CC(=O)N[C@@H]2CCC(=O)NC2)c(=O)c2cc3scnc3n12 [Ex 46, (R)-2-(5-Isopropyl-8-oxothiazolo[5′,4′:4,5]pyrrolo[1,2-d][1,2,4]triazin-7(8H)-yl)-N-(6-oxopiperidin-3-yl)acetamide] | > 100000 | 50.8 | –
8 | CC(C)c1nn(CC(=O)N[C@@H]2CCC[C@@H](O)C2)c(=O)c2cc3scnc3n12 [Ex 47, N-((1R,3R)-3-Hydroxycyclohexyl)-2-(5-isopropyl-8-oxothiazolo[5′,4′:4,5]pyrrolo[1,2-d][1,2,4]triazin-7(8H)-yl)acetamide] | > 100000 | 9.1 | –
9 | CC(C)c1nn(CC(=O)N[C@@H]2CCC(=O)N(C)C2)c(=O)c2cc3scnc3n12 [Ex 49, (R)-2-(5-Isopropyl-8-oxothiazolo[5′,4′:4,5]pyrrolo[1,2-d][1,2,4]triazin-7(8H)-yl)-N-(1-methyl-6-oxopiperidin-3-yl)acetamide] | > 100000 | – | 26.4
10 | Cc1nc2c(cc3c(=O)n(CC(=O)N[C@@H]4CCCNC4)nc(C(C)C)n32)s1 [Ex 50, (R)-2-(5-Isopropyl-2-methyl-8-oxothiazolo[5′,4′:4,5]pyrrolo[1,2-d][1,2,4]triazin-7(8H)-yl)-N-(piperidin-3-yl)acetamide] | > 100000 | 108 | –
11 | CC(C)c1nn(CC(=O)NC2CC2)c(=O)c2cc3scnc3n12 [Ex 51, N-Cyclopropyl-2-(5-isopropyl-8-oxothiazolo[5′,4′:4,5]pyrrolo[1,2-d][1,2,4]triazin-7(8H)-yl)acetamide] | > 100000 | 138 | –
12 | CC(C)c1nn(CC(=O)N[C@@H]2C[C@@H]2F)c(=O)c2cc3sc(Cl)cc3n12 [Ex 52, 2-(2-Chloro-5-isopropyl-8-oxothieno[2′,3′:4,5]pyrrolo[1,2-d][1,2,4]triazin-7(8H)-yl)-N-((1R,2S)-2-fluorocyclopropyl)acetamide] | > 100000 | 660 | –
13 | CC(C)c1nn(CC(=O)N[C@H]2CC[C@H](C(=O)O)CC2)c(=O)c2cc3sc(Cl)cc3n12 [Ex 53, (1r,4r)-4-(2-(2-Chloro-5-isopropyl-8-oxothieno[2′,3′:4,5]pyrrolo[1,2-d][1,2,4]triazin-7(8H)-yl)acetamido)cyclohexane-1-carboxylic acid] | > 100000 | 34.2 | –
14 | CC(C)c1nn(CC(=O)N[C@H]2CC[C@@H](C(=O)O)CC2)c(=O)c2cc3sc(Cl)cc3n12 [Ex 54, (1s,4s)-4-(2-(2-Chloro-5-isopropyl-8-oxothieno[2′,3′:4,5]pyrrolo[1,2-d][1,2,4]triazin-7(8H)-yl)acetamido)cyclohexane-1-carboxylic acid] | > 100000 | 562 | –
15 | CC(C)c1nn(CC(=O)N[C@H]2CCC[C@@H](C(=O)O)C2)c(=O)c2cc3sc(Cl)cc3n12 [Ex 55, (1R,3S)-3-(2-(2-Chloro-5-isopropyl-8-oxothieno[2′,3′:4,5]pyrrolo[1,2-d][1,2,4]triazin-7(8H)-yl)acetamido)cyclohexane-1-carboxylic acid] | > 100000 | 843 | –
16 | CC(C)c1nn(CC(=O)Nc2ccc(F)cc2F)c(=O)c2cc3sc(Cl)cc3n12 [Ex 58, 2-(2-Chloro-5-isopropyl-8-oxothieno[2′,3′:4,5]pyrrolo[1,2-d][1,2,4]triazin-7(8H)-yl)-N-(2,4-difluorophenyl)acetamide] | > 100000 | 176 | –
17 | CC(C)c1nn(CC(=O)N[C@@H]2CCCOC2)c(=O)c2cc3sc(Cl)cc3n12 [Ex 59, (R)-2-(2-Chloro-5-isopropyl-8-oxothieno[2′,3′:4,5]pyrrolo[1,2-d][1,2,4]triazin-7(8H)-yl)-N-(tetrahydro-2H-pyran-3-yl)acetamide] | > 100000 | 201 | –
18 | CC(C)(O)c1nn(CC(=O)NC2CC2)c(=O)c2cc3sc(Cl)cc3n12 [Ex 62, 2-(2-Chloro-5-(2-hydroxypropan-2-yl)-8-oxothieno[2′,3′:4,5]pyrrolo[1,2-d][1,2,4]triazin-7(8H)-yl)-N-cyclopropylacetamide] | > 100000 | 76.1 | –
19 | CC(C)(O)c1nn(CC(=O)N[C@@H]2CCC[C@@H](O)C2)c(=O)c2cc3sc(Cl)cc3n12 [Ex 64, 2-(2-Chloro-5-(2-hydroxypropan-2-yl)-8-oxothieno[2′,3′:4,5]pyrrolo[1,2-d][1,2,4]triazin-7(8H)-yl)-N-((1R,3R)-3-hydroxycyclohexyl)acetamide] | > 100000 | 3.4 | –
20 | CC(C)c1nn(CC(=O)NCCO)c(=O)c2cc3sc(Cl)cc3n12 [Ex 68, 2-(2-Chloro-5-isopropyl-8-oxothieno[2′,3′:4,5]pyrrolo[1,2-d][1,2,4]triazin-7(8H)-yl)-N-(2-hydroxyethyl)acetamide] | > 100000 | 45.2 | –
21 | CC(C)c1nn(CC(=O)NC[C@H](C)O)c(=O)c2cc3sc(Cl)cc3n12 [Ex 69, (S)-2-(2-Chloro-5-isopropyl-8-oxothieno[2′,3′:4,5]pyrrolo[1,2-d][1,2,4]triazin-7(8H)-yl)-N-(2-hydroxypropyl)acetamide] | > 100000 | 58.8 | –
22 | CC(C)c1nn(CC(=O)NC[C@@H](C)O)c(=O)c2cc3sc(Cl)cc3n12 [Ex 70, (R)-2-(2-Chloro-5-isopropyl-8-oxothieno[2′,3′:4,5]pyrrolo[1,2-d][1,2,4]triazin-7(8H)-yl)-N-(2-hydroxypropyl)acetamide] | > 100000 | 34.9 | –
